Measured values published in patent US4649215A, “Aliphatic thioethers” (Ciba-Geigy Corporation, priority 1984, dated 1987).
Counter-ions that a name gives are not always drawn.

Tests used:
leucotrienes = assay: leucotriene-antagonistic activity (test not specified); conditions: reverse absolute configuration at C-5 and C-6 compared with natural leucotrienes
Source text: Thus, in various test arrangements in vitro they have a clear leucotriene-antagonistic action.
As already mentioned above, there is a general analogy between the structure of the compounds of the formula I according to the invention and that of leucotrienes, especially in the obligatory trans-configuration of the vicinal S- and O-atoms mentioned at the beginning and the total structure of the mercaptoalkanoic acid residue (A) (especially in its typical form of a cysteine peptide). They differ from leucotrienes essentially in lacking the characteristic terminal carboxy group in the olefinic radical (B).

[1] = molecular target: phospholipase A2 from human leucocytes; assay: inhibition of phospholipase A2 obtained from human leucocytes; format: biochemical; conditions: human leucocyte enzyme, 37° 1 hour, pH 7, 14C-oleic acid labelled E. coli phospholipides
Experimental: Human neutrophilic polymorphonuclear leucocytes are isolated from "buffy coats" by multistage fractional sedimentation and deep-frozen. Phospholipase A2 is extracted from the cell suspension by homogenisation with the addition of icecold 0.36N H2 SO4 in 2N NaCl, and the supernatant obtained after centrifugation at 10,000× g is dialysed against sodium acetate buffer pH 4.5.
In order to determine the enzyme activity, enzyme (10-30 μg protein) is incubated at 37° for 1 hour in 0.1M tris/HCl buffer pH 7 with the addition of 1 mM CaCl2 and substrate consisting of phospholipides (2 μm) of Escherichia coli that have been radioactively labelled with ^14 C-oleic acid by means of biosynthesis. The reaction is stopped by the addition of Dole reagent (isopropanol/heptane/1N H2 SO4 40:10:1, v/v) and the ^14 C-oleic acid selectively released by phospholipase A2 is extracted. Substrate also extracted at the same time is completely removed by filtering the extract through a column of silica gel. The ^14 C-oleic acid in the eluate is determined by radiometry.
In order to ascertain the inhibitory action of test substances on phospholipase A2, these substances are added in the form of solutions in water, dimethyl sulphoxide (final concentration in the mixture up to 5% v/v) or ethanol (final concentration in the mixture up to 2.5% v/v) to the incubation mixture. […]

[2] = molecular target: phospholipase C from human thrombocytes; assay: inhibition of phospholipase C obtained from human thrombocytes; format: biochemical; conditions: human thrombocyte enzyme, 37° 5 minutes, pH 6, phosphatidyl-[14C]-inositol
Experimental: To ascertain the enzyme activity, enzyme (20-100 μg protein) is incubated at 37° for 5 minutes in 0.025M tris/malate buffer pH 6 with the addition of 0.2 mM CaCl2 and 0.02 mM radioactively labelled substrate, phosphatidyl-[^14 C]-inositol. The reaction is stopped by extraction by shaking with CHCl3 /CH3 OH 2:1 (v/v). In the course of this unconsumed substrate is extracted into the organic phase, whilst the reaction product, ^14 C-inositol phosphate, remains in the aqueous phase and can be measured by radiometry of an aliquot.
In order to ascertain the inhibitory action of test substances on phospholipase C, these substances are added in the form of solutions in water, dimethyl sulphoxide (final concentration in the mixture up to 5%, v/v) or ethanol (final concentration in the mixture up to 2.5%, v/v) to the incubation mixture. The strength of action of the test substances is expressed by the IC50, that is to say the concentration that causes a 50% inhibition of the control activity. The IC50 is ascertained on a graph by plotting the percentage inhibition on the ordinate against the log of the concentration (μM) on the abscissa.

Row | IC50 [1] | IC50 [2] | SMILES | activity (leucotriene antagonism), in words (leucotrienes)
1 |  |  | CCCCCCCC\C=C/C=C/C=C/[C@H](SCC(NC(=O)C(F)(F)F)C(=O)NCC(=O)O)[C@H](O)CCCC (stereo partly drawn) [Example 60A, Sodium salt of N-[S-5(R),6(S)-5-hydroxy-7,9-trans-11-cis-icosatrien-6-yl-N-trifluoroacetylcysteinyl]-glycine] | highly active
2 | 1600 µM | 20 µM | CCN(CC)CCCC(C)Nc1c2ccc(Cl)cc2nc2ccc(OC)cc12 (stereo not drawn) [mepacrine] | 
